# Values quoted from earlier work as cited in PMC10707982, “Solubility and Thermodynamics Data of Cabozantinib Malate in Various Aqueous Solutions of Dimethyl Sulfoxide at Different Temperatures” (Molecules, 2023).
# Design: method as in doi:10.1016/j.molliq.2020.115146
# Conditions: neat solvent; cited from earlier work
row,SMILES,"HSP of neat solvent (δ1, δ2) [MPa^1/2]"
1,"O [H2O, water]",47.80
2,"C[S+](C)[O-] [DMSO, dimethyl sulfoxide]",23.60
